Here are results for 32 compounds from patent US10435405B2, “Pyrazolopyridine compounds and uses thereof” (Incyte Corporation, priority 2016, dated 2019).

Sequence of HPK1 (Q92918 1-346): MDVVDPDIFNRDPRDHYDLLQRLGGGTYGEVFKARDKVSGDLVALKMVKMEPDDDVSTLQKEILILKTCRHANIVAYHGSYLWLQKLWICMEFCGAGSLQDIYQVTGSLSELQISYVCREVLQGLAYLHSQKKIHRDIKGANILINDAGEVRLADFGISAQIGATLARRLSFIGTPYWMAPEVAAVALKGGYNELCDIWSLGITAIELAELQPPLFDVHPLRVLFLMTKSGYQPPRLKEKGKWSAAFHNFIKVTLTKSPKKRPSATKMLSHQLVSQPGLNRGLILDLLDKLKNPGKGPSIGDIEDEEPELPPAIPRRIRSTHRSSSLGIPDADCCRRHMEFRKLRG

In the assay the target is HPK1 (Homo sapiens (Human), UniProt Q92918). The assay can be described thus: HPK1 Kinase Binding Assay. Summed up:
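This is a LanthaScreen tracer-binding format: a tracer 222/Eu-anti-GST antibody mix (18 nM and 4 nM solution) is added to active HPK1 (4 nM solution) with 3-fold, 11-point compound dilutions. Incubation is 1 h at 25 °C in HEPES pH 7.5 buffer before reading, and Ki is determined.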
For `COc1cccc(F)c1-c1cc2c(NC(=O)c3ccc(N4CCN(CC(F)(F)F)C(=O)C4)cc3)n[nH]c2cn1` [Example 29, N-(5-(2-Fluoro-6-methoxyphenyl)-1H-pyrazolo[3,4-c]pyridin-3-yl)-4-(3-oxo-4-(2,2,2-trifluoroethyl)piperazin-1-yl)benzamide], the inhibitory constant (Ki) (usually a dissociation constant, usually derived from enzyme kinetics or from competition with a known ligand) is at most 100 nM.

As for `COc1cccc(F)c1-c1cc2c(C(=O)Nc3ccc(N4CCN(C)CC4)cc3)n[nH]c2cn1` [Example 54, 5-(2-Fluoro-6-methoxyphenyl)-N-(4-(4-methylpiperazin-1-yl)phenyl)-1H-pyrazolo[3,4-c]pyridine-3-carboxamide], the inhibitory constant (Ki) was at most 100 nM. `CCNCc1ccc(F)c(-c2cc3c(-c4cnn(C)c4)n[nH]c3cn2)c1OC` [Example 139, N-(4-Fluoro-2-methoxy-3-(3-(1-methyl-1H-pyrazol-4-yl)-1H-pyrazolo[3,4-c]pyridin-5-yl)benzyl)ethanamine] yielded a Ki of at most 100 nM. Then `COc1cccc(F)c1-c1cc2c(N3CCN(c4ccc(C#N)cc4)CC3)n[nH]c2cn1` [Example 39, 4-(4-(5-(2-Fluoro-6-methoxyphenyl)-1H-pyrazolo[3,4-c]pyridin-3-yl)piperazin-1-yl)benzonitrile], with at most 100 nM; and `Cc1cc(NC(=O)CC#N)cc(F)c1-c1cc2c(-c3cnn(C)c3)n[nH]c2cn1` [Example 85, 2-Cyano-N-(3-fluoro-5-methyl-4-(3-(1-methyl-1H-pyrazol-4-yl)-1H-pyrazolo[3,4-c]pyridin-5-yl)phenyl)acetamide], with at most 100 nM. `Cc1cc(CNCc2cn(C)cn2)cc(F)c1-c1cc2c(-c3cnn(C)c3)n[nH]c2cn1` [Example 186, N-(3-Fluoro-5-methyl-4-(3-(1-methyl-1H-pyrazol-4-yl)-1H-pyrazolo[3,4-c]pyridin-5-yl)benzyl)-1-(1-methyl-1H-imidazol-4-yl)methanamine] gave an inhibitory constant (Ki) of at most 100 nM.

The compound `CN(C)c1ccc(F)c(-c2cc3c(-c4cnn(C)c4)n[nH]c3cn2)c1F` [Example 62, 2,4-Difluoro-N,N-dimethyl-3-(3-(1-methyl-1H-pyrazol-4-yl)-1H-pyrazolo[3,4-c]pyridin-5-yl)aniline] returned a Ki of at most 100 nM.

`COc1cccc(F)c1-c1cc2c(NC(=O)c3cccc(N4CCN(C)CC4)c3)n[nH]c2cn1` [Example 18, N-(5-(2-Fluoro-6-methoxyphenyl)-1H-pyrazolo[3,4-c]pyridin-3-yl)-3-(4-methylpiperazin-1-yl)benzamide] gave a Ki of at most 100 nM. With `Cn1cc(-c2n[nH]c3cnc(-c4c(F)cc(NC(=O)CN5CCCC5)cc4Cl)cc23)cn1` [Example 73, N-(3-Chloro-5-fluoro-4-(3-(1-methyl-1H-pyrazol-4-yl)-1H-pyrazolo[3,4-c]pyridin-5-yl)phenyl)-2-(pyrrolidin-1-yl)acetamide], the inhibitory constant (Ki) is at most 100 nM.

`COc1cccc(F)c1-c1cc2c(NC(=O)c3ccc(N4CCOCC4)cc3)n[nH]c2cn1` [Example 24, N-(5-(2-Fluoro-6-methoxyphenyl)-1H-pyrazolo[3,4-c]pyridin-3-yl)-4-morpholinobenzamide] yielded an inhibition constant Ki of at most 100 nM. The compound `Cn1cc(-c2n[nH]c3cnc(-c4c(F)cc(OC(=O)N5CCOCC5)cc4F)cc23)cn1` [Example 110, 3,5-Difluoro-4-(3-(1-methyl-1H-pyrazol-4-yl)-1H-pyrazolo[3,4-c]pyridin-5-yl)phenyl morpholine-4-carboxylate] had an inhibitory constant (Ki) of at most 100 nM. To `COc1cccc(F)c1-c1cc2c(NC(=O)c3ccc4c(c3)OCO4)n[nH]c2cn1` [Example 13, N-(5-(2-Fluoro-6-methoxyphenyl)-1H-pyrazolo[3,4-c]pyridin-3-yl)benzo[d][1,3]dioxole-5-carboxamide] belongs at most 100 nM; to `Cc1cc(NC(=O)CN2C[C@H]3CC[C@@H]2C3)cc(F)c1-c1cc2c(-c3cnn(C)c3)n[nH]c2cn1` [Example 83, 2-((1R,4S)-2-Azabicyclo[2.2.1]heptan-2-yl)-N-(3-fluoro-5-methyl-4-(3-(1-methyl-1H-pyrazol-4-yl)-1H-pyrazolo[3,4-c]pyridin-5-yl)phenyl)acetamide], at most 100 nM.

As to `COC(=O)N1CCN(c2ccc(C(=O)Nc3n[nH]c4cnc(-c5c(F)cc(CNC(C)C)cc5F)cc34)cc2)CC1` [Example 147, Methyl 4-(4-(5-(2,6-difluoro-4-((isopropylamino)methyl)phenyl)-1H-pyrazolo[3,4-c]pyridin-3-ylcarbamoyl)phenyl)piperazine-1-carboxylate], the Ki was at most 100 nM. Regarding `CNC(C)c1cc(C)c(-c2cc3c(-c4cnn(C)c4)n[nH]c3cn2)c(F)c1` (single isomer, unassigned) [Example 189, 1-(3-Fluoro-5-methyl-4-(3-(1-methyl-1H-pyrazol-4-yl)-1H-pyrazolo[3,4-c]pyridin-5-yl)phenyl)-N-methylethanamine], the inhibition constant (Ki) is at most 100 nM. To `CNCc1cc(F)c(-c2cc3c(-c4ccc(C5CC5)nc4)n[nH]c3cn2)c(C(F)(F)F)c1` [Example 120, 1-(4-(3-(6-Cyclopropylpyridin-3-yl)-1H-pyrazolo[3,4-c]pyridin-5-yl)-3-fluoro-5-(trifluoromethyl)phenyl)-N-methylmethanamine] belongs at most 100 nM; to `CNC1CCc2c1cc(C)c(-c1cc3c(-c4cnn(C)c4)n[nH]c3cn1)c2F` (single isomer, unassigned) [Example 239, 4-Fluoro-N,6-dimethyl-5-(3-(1-methyl-1H-pyrazol-4-yl)-1H-pyrazolo[3,4-c]pyridin-5-yl)-2,3-dihydro-1H-inden-1-amine], at most 100 nM. The compound `Cc1cc(CNCc2cocn2)cc(F)c1-c1cc2c(-c3cnn(C)c3)n[nH]c2cn1` [Example 187, N-(3-Fluoro-5-methyl-4-(3-(1-methyl-1H-pyrazol-4-yl)-1H-pyrazolo[3,4-c]pyridin-5-yl)benzyl)-1-(oxazol-4-yl)methanamine] yielded an inhibition constant (Ki) of at most 100 nM. Then `CNCc1cc(F)c(-c2cc3c(-c4cnn(C5CNC5)c4)n[nH]c3cn2)c(F)c1` [Example 162, 1-(4-(3-(1-(Azetidin-3-yl)-1H-pyrazol-4-yl)-1H-pyrazolo[3,4-c]pyridin-5-yl)-3,5-difluorophenyl)-N-methylmethanamine], with at most 100 nM. To `CNCCc1cc(F)c(-c2cc3c(-c4cnn(C)c4)n[nH]c3cn2)c(F)c1` [Example 96, 2-(3,5-Difluoro-4-(3-(1-methyl-1H-pyrazol-4-yl)-1H-pyrazolo[3,4-c]pyridin-5-yl)phenyl)-N-methylethanamine] belongs at most 100 nM. In the case of `CNCc1cc(F)c(-c2cc3c(-c4cnc(N5CCN(C)CC5)nc4)n[nH]c3cn2)c(F)c1` [Example 217, 1-(3,5-Difluoro-4-(3-(2-(4-methylpiperazin-1-yl)pyrimidin-5-yl)-1H-pyrazolo[3,4-c]pyridin-5-yl)phenyl)-N-methylmethanamine], the inhibition constant Ki was at most 100 nM. Compound `CCN(C)c1cccc(-c2n[nH]c3cnc(-c4c(C)cc(CNC)cc4F)cc23)n1` [Example 118, N-Ethyl-6-(5-(2-fluoro-6-methyl-4-((methylamino)methyl)phenyl)-1H-pyrazolo[3,4-c]pyridin-3-yl)-N-methylpyridin-2-amine] came in with an inhibition constant (Ki) of at most 100 nM. To `CCNCc1ccc(F)c(-c2cc3c(-c4cnn(C)c4)n[nH]c3cn2)c1C` [Example 236, N-(4-Fluoro-2-methyl-3-(3-(1-methyl-1H-pyrazol-4-yl)-1H-pyrazolo[3,4-c]pyridin-5-yl)benzyl)ethanamine] belongs at most 100 nM.

In the case of `COc1cccc(F)c1-c1cc2c(NC(=O)c3cccc(F)c3)n[nH]c2cn1` [Example 6, 3-Fluoro-N-(5-(2-fluoro-6-methoxyphenyl)-1H-pyrazolo[3,4-c]pyridin-3-yl)benzamide], the Ki was at most 100 nM. The compound `Cc1cc(CN2CCC2)cc(F)c1-c1cc2c(-c3cnn(C)c3)n[nH]c2cn1` [Example 182, 5-(4-(Azetidin-1-ylmethyl)-2-fluoro-6-methylphenyl)-3-(1-methyl-1H-pyrazol-4-yl)-1H-pyrazolo[3,4-c]pyridine] yielded a Ki of at most 100 nM. Then `Cc1cc(CNC2CC2)cc(F)c1-c1cc2c(-c3cnn(C)c3)n[nH]c2cn1` [Example 177, N-(3-Fluoro-5-methyl-4-(3-(1-methyl-1H-pyrazol-4-yl)-1H-pyrazolo[3,4-c]pyridin-5-yl)benzyl)cyclopropanamine], with at most 100 nM; and `CC(C(=O)Nc1cc(F)c(-c2cc3c(-c4cnn(C)c4)n[nH]c3cn2)c(F)c1)N1CCCC1` (centres unmarked) [Example 70, N-(3,5-Difluoro-4-(3-(1-methyl-1H-pyrazol-4-yl)-1H-pyrazolo[3,4-c]pyridin-5-yl)phenyl)-2-(pyrrolidin-1-yl)propanamide], with at most 100 nM.

In the case of `COc1cccc(F)c1-c1cc2c(NC(=O)c3ccc(Br)cc3)n[nH]c2cn1` [Example 3, 4-Bromo-N-(5-(2-fluoro-6-methoxyphenyl)-1H-pyrazolo[3,4-c]pyridin-3-yl)benzamide], the inhibition constant (Ki) is at most 100 nM. Then `Cn1cc(-c2n[nH]c3cnc(-c4c(F)cc5c(c4F)C(O)CC5)cc23)cn1` (centres unmarked) [Example 212, 5,7-Difluoro-6-(3-(1-methyl-1H-pyrazol-4-yl)-1H-pyrazolo[3,4-c]pyridin-5-yl)-2,3-dihydro-1H-inden-1-ol], with at most 100 nM; and `Cn1cc(-c2n[nH]c3cnc(-c4cccc(CN5CCC5)c4C(F)(F)F)cc23)cn1` [Example 89, 5-(3-(Azetidin-1-ylmethyl)-2-(trifluoromethyl)phenyl)-3-(1-methyl-1H-pyrazol-4-yl)-1H-pyrazolo[3,4-c]pyridine], with at most 100 nM. To `Cc1cc(CNCC#N)cc(F)c1-c1cc2c(-c3cnn(C)c3)n[nH]c2cn1` [Example 188, 2-(3-Fluoro-5-methyl-4-(3-(1-methyl-1H-pyrazol-4-yl)-1H-pyrazolo[3,4-c]pyridin-5-yl)benzylamino)acetonitrile] belongs at most 100 nM; to `Cn1cc(-c2n[nH]c3cnc(-c4c(F)cc(OCC5CCN5)cc4F)cc23)cn1` (centres unmarked) [Example 106, 5-(4-(Azetidin-2-ylmethoxy)-2,6-difluorophenyl)-3-(1-methyl-1H-pyrazol-4-yl)-1H-pyrazolo[3,4-c]pyridine], at most 100 nM.
